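These data come from cells grown in 96-well plates and exposed to compound for 48 hours at five concentrations. The concentration for full growth arrest is given as TGI.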
Columns and labels:
Test in all cases: NCI tumour cell line growth inhibition, 48 h
HT29 colon = tested on: HT29 colon
ACHN renal = tested on: ACHN renal
SN12C renal = tested on: SN12C renal
UO-31 renal = tested on: UO-31 renal
M14 melanoma = tested on: M14 melanoma
SF-539 CNS = tested on: SF-539 CNS
RPMI-8226 leukemia = tested on: RPMI-8226 leukemia
HCC-2998 colon = tested on: HCC-2998 colon
PC-3 prostate = tested on: PC-3 prostate
A549 NSCLC = tested on: A549 NSCLC
BT-549 breast = tested on: BT-549 breast
OVCAR-3 ovarian = tested on: OVCAR-3 ovarian
OVCAR-8 ovarian = tested on: OVCAR-8 ovarian
HS 578T breast = tested on: HS 578T breast
786-0 renal = tested on: 786-0 renal
TK-10 renal = tested on: TK-10 renal
HCT-15 colon = tested on: HCT-15 colon
SK-MEL-2 melanoma = tested on: SK-MEL-2 melanoma
SF-295 CNS = tested on: SF-295 CNS
NCI-H226 lung = tested on: NCI-H226 lung
HOP-62 NSCLC = tested on: HOP-62 NSCLC
DU-145 prostate = tested on: DU-145 prostate
LOX IMVI melanoma = tested on: LOX IMVI melanoma
EKVX NSCLC = tested on: EKVX NSCLC
NCI-H23 lung = tested on: NCI-H23 lung
UACC-62 melanoma = tested on: UACC-62 melanoma
K-562 leukemia = tested on: K-562 leukemia
HCT-116 colon = tested on: HCT-116 colon
OVCAR-4 ovarian = tested on: OVCAR-4 ovarian
SW-620 colon = tested on: SW-620 colon
MCF7 breast = tested on: MCF7 breast
MALME-3M melanoma = tested on: MALME-3M melanoma
HOP-92 NSCLC = tested on: HOP-92 NSCLC
CAKI-1 renal = tested on: CAKI-1 renal
OVCAR-5 ovarian = tested on: OVCAR-5 ovarian
MDA-N = tested on: MDA-N
NCI/ADR-RES ovarian = tested on: NCI/ADR-RES ovarian
NCI-H460 lung = tested on: NCI-H460 lung
MDA-MB-231 breast = tested on: MDA-MB-231 breast
SK-MEL-5 melanoma = tested on: SK-MEL-5 melanoma
COLO 205 colon = tested on: COLO 205 colon
RXF 393 renal = tested on: RXF 393 renal
UACC-257 melanoma = tested on: UACC-257 melanoma
CCRF-CEM leukemia = tested on: CCRF-CEM leukemia
SNB-19 CNS = tested on: SNB-19 CNS
KM12 colon = tested on: KM12 colon
U251 CNS = tested on: U251 CNS
SK-OV-3 ovarian = tested on: SK-OV-3 ovarian
T-47D breast = tested on: T-47D breast
A498 renal = tested on: A498 renal
MDA-MB-435 = tested on: MDA-MB-435
NCI-H522 lung = tested on: NCI-H522 lung
IGROV1 ovarian = tested on: IGROV1 ovarian
SK-MEL-28 melanoma = tested on: SK-MEL-28 melanoma
SF-268 CNS = tested on: SF-268 CNS
SR leukemia = tested on: SR leukemia
MOLT-4 leukemia = tested on: MOLT-4 leukemia
SNB-75 CNS = tested on: SNB-75 CNS
HL-60(TB) leukemia = tested on: HL-60(TB) leukemia

CCN(CC)CCNc1ccc2nnn3c4ccc(OC(C)=O)cc4c(=O)c1c23
TGI (HT29 colon): 11.4 µM
TGI (ACHN renal): 12.9 µM
TGI (SN12C renal): 15.8 µM
TGI (UO-31 renal): 12.3 µM
TGI (M14 melanoma): 21 µM
TGI (SF-539 CNS): 9.47 µM
TGI (RPMI-8226 leukemia): 5.56 µM
TGI (HCC-2998 colon): 17.4 µM
TGI (PC-3 prostate): 17.3 µM
TGI (A549 NSCLC): > 40.6 µM
TGI (BT-549 breast): 27.2 µM
TGI (OVCAR-3 ovarian): 22.2 µM
TGI (OVCAR-8 ovarian): 16.7 µM
TGI (HS 578T breast): 19.1 µM
TGI (786-0 renal): > 38.1 µM
TGI (TK-10 renal): 16.7 µM
TGI (HCT-15 colon): 13.6 µM
TGI (SK-MEL-2 melanoma): 30.7 µM
TGI (SF-295 CNS): 19.3 µM
TGI (NCI-H226 lung): 7.62 µM
TGI (HOP-62 NSCLC): 12.5 µM
TGI (DU-145 prostate): 15.1 µM
TGI (LOX IMVI melanoma): 6.83 µM
TGI (EKVX NSCLC): 19.3 µM
TGI (NCI-H23 lung): 18.9 µM
TGI (UACC-62 melanoma): 25.3 µM
TGI (K-562 leukemia): > 19.8 µM
TGI (HCT-116 colon): > 37.5 µM
TGI (OVCAR-4 ovarian): 8.73 µM
TGI (SW-620 colon): 13.6 µM
TGI (MCF7 breast): 16.2 µM
TGI (MALME-3M melanoma): 16.3 µM
TGI (HOP-92 NSCLC): 17.7 µM
TGI (CAKI-1 renal): 3.31 µM
TGI (OVCAR-5 ovarian): 24 µM
TGI (MDA-N): 17.8 µM
TGI (NCI/ADR-RES ovarian): 19.1 µM
TGI (NCI-H460 lung): 11.5 µM
TGI (MDA-MB-231 breast): 16 µM
TGI (SK-MEL-5 melanoma): 11.2 µM
TGI (COLO 205 colon): 14.6 µM
TGI (RXF 393 renal): 6.19 µM
TGI (UACC-257 melanoma): 24.9 µM
TGI (CCRF-CEM leukemia): 3.2 µM
TGI (SNB-19 CNS): > 43.2 µM
TGI (KM12 colon): 15.4 µM
TGI (U251 CNS): 15.5 µM
TGI (SK-OV-3 ovarian): 21 µM
TGI (T-47D breast): 31.1 µM
TGI (A498 renal): 21 µM
TGI (MDA-MB-435): 18 µM
TGI (NCI-H522 lung): 5.92 µM
TGI (IGROV1 ovarian): 6.38 µM
TGI (SK-MEL-28 melanoma): 26.3 µM
TGI (SF-268 CNS): 18.1 µM

CNc1nc(=O)c(C#N)c(-c2ccc(C)cc2)s1
TGI (HT29 colon): > 100 µM
TGI (ACHN renal): > 100 µM
TGI (SN12C renal): > 100 µM
TGI (UO-31 renal): > 100 µM
TGI (M14 melanoma): > 100 µM
TGI (SR leukemia): > 100 µM
TGI (SF-539 CNS): > 100 µM
TGI (MOLT-4 leukemia): > 100 µM
TGI (HCC-2998 colon): > 100 µM
TGI (PC-3 prostate): > 100 µM
TGI (A549 NSCLC): > 100 µM
TGI (BT-549 breast): > 100 µM
TGI (OVCAR-3 ovarian): > 100 µM
TGI (OVCAR-8 ovarian): > 100 µM
TGI (786-0 renal): > 100 µM
TGI (TK-10 renal): > 100 µM
TGI (HCT-15 colon): > 100 µM
TGI (SK-MEL-2 melanoma): > 100 µM
TGI (SF-295 CNS): > 100 µM
TGI (NCI-H226 lung): > 100 µM
TGI (DU-145 prostate): > 100 µM
TGI (LOX IMVI melanoma): > 100 µM
TGI (EKVX NSCLC): > 100 µM
TGI (NCI-H23 lung): > 100 µM
TGI (UACC-62 melanoma): > 100 µM
TGI (K-562 leukemia): > 100 µM
TGI (HCT-116 colon): > 100 µM
TGI (OVCAR-4 ovarian): > 100 µM
TGI (SW-620 colon): > 100 µM
TGI (MCF7 breast): > 100 µM
TGI (SNB-75 CNS): > 100 µM
TGI (MALME-3M melanoma): > 100 µM
TGI (HOP-92 NSCLC): > 100 µM
TGI (CAKI-1 renal): > 100 µM
TGI (OVCAR-5 ovarian): > 100 µM
TGI (MDA-N): > 100 µM
TGI (NCI/ADR-RES ovarian): > 100 µM
TGI (NCI-H460 lung): > 100 µM
TGI (MDA-MB-231 breast): > 100 µM
TGI (SK-MEL-5 melanoma): > 100 µM
TGI (COLO 205 colon): > 100 µM
TGI (RXF 393 renal): > 100 µM
TGI (UACC-257 melanoma): > 100 µM
TGI (CCRF-CEM leukemia): > 100 µM
TGI (SNB-19 CNS): > 100 µM
TGI (KM12 colon): > 100 µM
TGI (U251 CNS): > 100 µM
TGI (SK-OV-3 ovarian): > 100 µM
TGI (T-47D breast): > 100 µM
TGI (HL-60(TB) leukemia): > 100 µM
TGI (MDA-MB-435): > 100 µM
TGI (NCI-H522 lung): > 100 µM
TGI (IGROV1 ovarian): > 100 µM
TGI (SK-MEL-28 melanoma): > 100 µM

Cc1cc(NS(=O)(=O)c2ccc(NC(=O)c3cccc4c(NNc5ccc(S(N)(=O)=O)cc5)c5ccccc5nc34)cc2)no1
TGI (HT29 colon): 73.2 µM
TGI (ACHN renal): > 100 µM
TGI (SN12C renal): > 100 µM
TGI (UO-31 renal): > 100 µM
TGI (M14 melanoma): > 100 µM
TGI (SR leukemia): 93.2 µM
TGI (SF-539 CNS): > 100 µM
TGI (RPMI-8226 leukemia): > 100 µM
TGI (MOLT-4 leukemia): 87.9 µM
TGI (HCC-2998 colon): 92.9 µM
TGI (PC-3 prostate): > 100 µM
TGI (A549 NSCLC): > 100 µM
TGI (BT-549 breast): > 100 µM
TGI (OVCAR-3 ovarian): 71.1 µM
TGI (OVCAR-8 ovarian): > 100 µM
TGI (786-0 renal): > 100 µM
TGI (TK-10 renal): > 100 µM
TGI (HCT-15 colon): > 100 µM
TGI (SK-MEL-2 melanoma): 61 µM
TGI (SF-295 CNS): > 100 µM
TGI (NCI-H226 lung): 91.7 µM
TGI (HOP-62 NSCLC): > 100 µM
TGI (DU-145 prostate): > 100 µM
TGI (LOX IMVI melanoma): 86.1 µM
TGI (EKVX NSCLC): > 100 µM
TGI (NCI-H23 lung): > 100 µM
TGI (UACC-62 melanoma): > 100 µM
TGI (K-562 leukemia): > 100 µM
TGI (HCT-116 colon): > 100 µM
TGI (OVCAR-4 ovarian): > 100 µM
TGI (SW-620 colon): > 100 µM
TGI (MCF7 breast): > 100 µM
TGI (SNB-75 CNS): 96.6 µM
TGI (MALME-3M melanoma): > 100 µM
TGI (HOP-92 NSCLC): 82 µM
TGI (CAKI-1 renal): > 100 µM
TGI (OVCAR-5 ovarian): > 100 µM
TGI (MDA-N): > 100 µM
TGI (NCI/ADR-RES ovarian): > 100 µM
TGI (NCI-H460 lung): > 100 µM
TGI (MDA-MB-231 breast): > 100 µM
TGI (SK-MEL-5 melanoma): > 100 µM
TGI (COLO 205 colon): > 100 µM
TGI (RXF 393 renal): > 100 µM
TGI (UACC-257 melanoma): > 100 µM
TGI (CCRF-CEM leukemia): 66.2 µM
TGI (SNB-19 CNS): > 100 µM
TGI (KM12 colon): > 100 µM
TGI (U251 CNS): 63.6 µM
TGI (SK-OV-3 ovarian): > 100 µM
TGI (T-47D breast): > 100 µM
TGI (HL-60(TB) leukemia): 76.5 µM
TGI (MDA-MB-435): > 100 µM
TGI (NCI-H522 lung): 72.8 µM
TGI (IGROV1 ovarian): > 100 µM
TGI (SK-MEL-28 melanoma): 89 µM
TGI (SF-268 CNS): > 100 µM

From PubChem BioAssay (NCI)
